Assay results from US20140213446A1, “HERBICIDAL COMPOSITIONS AND METHODS USING COMBINATIONS OF 4-AMINO-3-CHLORO-6-(4-CHLORO-2-FLUORO-3-METHOXYPHENYL)PYRIDINE-2-CARBOXYLIC ACID OR A DERIVATIVE THEREOF AND AN ARYLOXYPHENOXY PROPIONATE ACCASE INHIBITOR HERBICIDE” (DOW AGROSCIENCES LLC, priority 2013, published 2014).

Tests used:
Test in all cases: Postemergent herbicidal activity, greenhouse
Assay type in all cases: in vivo
[1] = system: VIOTR Viola tricolor L. (wild violet)
Experimental: (§1) Evaluation of Postemergent Herbicidal Activity. Seeds or nutlets of the desired test plant species were planted in Sun Gro Metro-Mix® 360 planting mixture, which typically has a pH of 6.0 to 6.8 and an organic matter content of about 30 percent, in plastic pots with a surface area of 64 square centimeters (cm^2). When required to ensure good germination and healthy plants, a fungicide treatment and/or other chemical or physical treatment was applied. The plants were grown for 7-21 days (d) in a greenhouse with an approximate 15 hour (h) photoperiod which was maintained at about 23-29° C. during the day and 22-28° C. during the night. Nutrients and water were added on a regular basis and supplemental lighting was provided with overhead metal halide 1000-Watt lamps as necessary. The plants were employed for testing when they reached the first or second true leaf stage.
(§2) A weighed amount, determined by the highest rate to be tested, of each test compound was placed in a 25 milliliter (mL) glass vial and was dissolved in 4 mL of a 97:3 volume per volume (v/v) mixture of acetone and dimethyl sulfoxide (DMSO) to obtain concentrated stock solutions. […] The concentrated stock solutions obtained were diluted with 20 mL of an aqueous mixture containing acetone, water, isopropyl alcohol, DMSO, Atplus 411F crop oil concentrate, and Triton® X-155 surfactant in a 48.5:39:10:1.5:1.0:0.02 v/v ratio to obtain spray solutions containing the highest application rates. Additional application rates were obtained by serial dilution of 12 mL of the high rate solution into a solution containing 2 mL of a 97:3 v/v mixture of acetone and DMSO and 10 mL of an aqueous mixture containing acetone, water, isopropyl alcohol, DMSO, Atplus 411F crop oil concentrate, and Triton X-155 surfactant in a 48.5:39:10:1.5:1.0:0.02 v/v ratio to obtain ½X, ¼X, ⅛X and 1/16X rates of the high rate. Compound requirements are based upon a 12 mL application volume at a rate of 187 liters per hectare (L/ha). Formulated compounds were applied to the plant material with an overhead Mandel track sprayer equipped with 8002E nozzles calibrated to deliver 187 L/ha over an application area of 0.503 square meters (m^2) at a spray height of 18 inches ([…]) above the average plant canopy height. Control plants were sprayed in the same manner with the solvent blank.
(§3) Treatments consisted of the methyl ester of 4-amino-3-chloro-6-(4-chloro-2-fluoro-3-methoxyphenyl)pyridine-2-carboxylic acid (Cmpd 1) as technical grade material and fluazifop-P-butyl (Fusilade® DX), haloxyfop-P-methyl (GALLANT® super), and quizalofop-P-ethyl (Assure® II) alone and in combination. The form of compound of formula (I) and fluazifop-P-butyl, haloxyfop-P-methyl, and quizalofop-P-ethyl were applied on an acid equivalent basis.
(§4) The treated plants and control plants were placed in a greenhouse as described above and watered by subirrigation to prevent wash-off of the test compounds. After 14 d, the condition of the test plants as compared with that of the untreated plants was determined visually and scored on a scale of 0 to 100 percent where 0 corresponds to no injury and 100 corresponds to complete kill.
(§5) Results of testing mixtures in accordance with this disclosure and of the components of the mixtures separately against various common weeds in greenhouse trials are reported in the following tables. The reported values are of percent (%) control or percent (%) injury, visually rated. Colby's equation was used to determine the herbicidal effects expected from the mixtures (Colby, S. R. Calculation of the synergistic and antagonistic response of herbicide combinations. Weeds 1967, 15, 20-22.).
(§6) More specifically, the following equation was used to calculate the expected activity of mixtures containing two active ingredients, A and B:
(§7) A=observed efficacy of active ingredient A at the same concentration as used in the mixture; B=observed efficacy of active ingredient B at the same concentration as used in the mixture. […]

[2] = system: BRSNW Brassica napus (winter oilseed rape)
Experimental: as §1, §2, §3, §4, §5, §6, §7

[3] = system: STEME Stellaria media (L.) Vill. (common chickweed)
Experimental: as §1, §2, §3, §4, §5, §6, §7

[4] = system: CHEAL Chenopodium album L. (common lambsquarters)
Experimental: as §1, §2, §3, §4, §5, §6, §7

[5] = system: CIRAR Cirsium arvense (L.) Scop. (Canada thistle)
Experimental: as §1, §2, §3, §4, §5, §6, §7

[6] = system: AMARE Amaranthus retroflexus L. (redroot pigweed)
Experimental: as §1, §2, §3, §4, §5, §6, §7

[7] = system: IPOHE Ipomoea hederacea (L.) Jacq. (ivyleaf momingglory)
Experimental: as §1, §2, §3, §4, §5, §6, §7

Measured: Visual Growth Reduction (%) 14 DAA Obs

CCOC(=O)[C@@H](C)Oc1ccc(Oc2cnc3cc(Cl)ccc3n2)cc1 [Quizalofop-P-ethyl, quizalofop-P-ethyl]
0%: [1]; Quizalofop-P 37.5 g ae/ha | [1]; Quizalofop-P 75 g ae/ha | [1]; Quizalofop-P 150 g ae/ha | [2]; Quizalofop-P 37.5 g ae/ha | [2]; Quizalofop-P 75 g ae/ha | [2]; Quizalofop-P 150 g ae/ha | [3]; Quizalofop-P 37.5 g ae/ha | [3]; Quizalofop-P 75 g ae/ha | [3]; Quizalofop-P 150 g ae/ha | [4]; Quizalofop-P 37.5 g ae/ha | [4]; Quizalofop-P 75 g ae/ha | [4]; Quizalofop-P 150 g ae/ha | [5]; Quizalofop-P 37.5 g ae/ha | [5]; Quizalofop-P 75 g ae/ha | [5]; Quizalofop-P 150 g ae/ha | [6]; Quizalofop-P 37.5 g ae/ha | [6]; Quizalofop-P 75 g ae/ha | [6]; Quizalofop-P 150 g ae/ha | [7]; Quizalofop-P 37.5 g ae/ha | [7]; Quizalofop-P 75 g ae/ha | [7]; Quizalofop-P 150 g ae/ha
